Test results: patent publication US20190175467A1, “COMPOSITION FOR THE TREATMENT OF ACNE” (ROTTAPHARM LTD., priority 2015, published 2019)
Converted amounts (≈) assume the structure as drawn.

How the values were obtained:
IL-6 = experiment: Anti-inflammatory activity: LPS-induced IL-6 release in HaCat keratinocytes (ELISA), as headed in Table 3; type: cell-based, human; conditions: HaCat + LPS 10 ng/ml; CTR− is 0, CTR+ is 100%; WMAL 0.4%, SMAL 0.02%
IL1alpha = experiment: Anti-inflammatory activity: LPS-induced IL1alpha release in HaCat keratinocytes (ELISA); type: cell-based, human
Source text: (§1) The aim of the test was the evaluation of the anti-inflammatory activity of Salix alba extract, 1,2-decanediol and their combination by means of the study of TNFalpha, IL1alpha, IL8 synthesis modulation in a biological experimental model (keratinocyte cell culture HaCat).
(§2) In order to stimulate the inflammatory process in our experimental model, lipopolysaccharides (LPS) were selected. LPS are pro-inflammatory mediators secreted by bacteria, e.g. by P. acnes.
(§3) 1,2-decanediol (SMAL) was emulsified with corn oil (37° C.) in mechanical agitation and addition of culture medium, starting from the following ratio: 0.05 g emulsified with 100 μl corn oil in a final volume of culture medium of 1 ml (37° C.).
(§4) Salix alba extract (WMAL) was direct diluted in culture medium, starting from the following ratio: 0.05 g in 1 ml (37° C.); subsequent dilutions in culture medium (37° C.). […]
(§5) At the end of the monitored experimental period, cytokine levels were measured by means of ELISA assay. […]
(§6) Commercial ELISA kits were used for the determination of cytokine quantity.
(§7) The quantitative determination uses a calibration curve made-up of standard known and growing concentrations of standard cytokine. […]
(§8) In order to compare the two different work sessions, the obtained data were normalized in a 0-100% scale, in which CTR− is 0 and CTR+ is 100%; all the other data were calculated in this interval.

[1] = system: Propionibacterium acnes ATCC 11827; experiment: Determination of MIC and MBC, P. acnes; type: cell-based; conditions: Cutibacterium acnes, ATCC11827; Propionibacterium acnes ATCC 11827, 2.6×10^4 cells per milliliter
Description: (§9) A series of test tubes was prepared containing the culture broth inoculated with the test micro-organism and the substance to be tested was introduced at decreasing scalar concentrations. […] The test tubes in which the microbial population developed were then determined by observing visually the turbidity that is indicative of growth. Test tubes in which the substance is present at a sufficient concentration to inhibit growth remain clear. When the nature itself of the sample prevents visual reading or if it is wished to determine whether the lack of development is due to a microbiostatic or microbicidal action, transfers are made to appropriate agar media for confirmation. The concentration of sample at which growth of the micro-organisms is inhibited is considered to be the Minimum Inhibitory Concentration (MIC), while that at which viable micro-organisms are no longer present is considered to be the Minimum Bactericidal Concentration (MBC) In a further set of experiments we tested the antibacterial activity of Salix alba extract and 1,2-decanediol, a substance which is known to show antibacterial activity against P. acnes, alone and in combination according to the above-described method. The microbial strain used was Propionibacterium acnes ATCC 11827 titrated at a concentration of 2.6×10^4 cells per milliliter of medium.

TNFalpha = experiment: Anti-inflammatory activity: LPS-induced TNFalpha release in HaCat keratinocytes (ELISA); type: cell-based, human
Source text: as §1, §2, §3, §4, §5, §6, §7, §8

IL8 = experiment: Anti-inflammatory activity: LPS-induced IL8 release in HaCat keratinocytes (ELISA); type: cell-based, human
Source text: as §1, §2, §3, §4, §5, §6, §7, §8

[2] = system: Propionibacterium acnes ATCC 11827; conditions: common knowledge; cited from earlier work
[3] = system: Staphylococcus epidermidis ATCC 12228; experiment: Determination of MIC and MBC, Staphylococcus epidermidis; type: cell-based; conditions: for MBC: ATCC12228; for MIC: ATCC12228, read-out: MIC
Description: as §9, with “The” for “In a further set of experiments we tested the”, “these substances against Staphylococcus aureus acnes ATCC 25923” for “Salix alba extract”, “Staphylococcus epidermidis ATCC 12228 was tested” for “1,2-decanediol, a substance which is known to show antibacterial activity against P. acnes, alone and in combination”, “method.” for “method. The microbial strain used was Propionibacterium acnes ATCC 11827 titrated at a concentration of 2.6×10^4 cells per milliliter of medium.”

[4] = system: Staphylococcus aureus ATCC 25923; experiment: Determination of MIC and MBC, Staphylococcus aureus; type: cell-based; conditions: for MBC: ATCC25923; for MIC: ATCC25923, read-out: MIC
Description: as §9, with “The” for “In a further set of experiments we tested the”, “these substances against Staphylococcus aureus acnes ATCC 25923” for “Salix alba extract”, “Staphylococcus epidermidis ATCC 12228 was tested” for “1,2-decanediol, a substance which is known to show antibacterial activity against P. acnes, alone and in combination”, “method.” for “method. The microbial strain used was Propionibacterium acnes ATCC 11827 titrated at a concentration of 2.6×10^4 cells per milliliter of medium.”

[5] = HaCat + LPS 10 ng/ml, CTR− is 0, CTR+ is 100%, WMAL 0.4%, SMAL 0.02%

| SMILES | MIC [1] [µg/mL] | MIC [3] [µg/mL] | MIC [4] [µg/mL] | MBC [1] [µg/mL] | antibacterial activity against P. acnes, as known (in words) [2] | MBC [3] [µg/mL] | MBC [4] [µg/mL] | other results |
| --- | --- | --- | --- | --- | --- | --- | --- | --- |
| CCCCCCCCC(O)CO (stereo not shown) [1,2-decanediol] | 620 |  |  | 1250 | effective |  |  | IL-6, normalized data 0-100% (IL-6): 61.69%; effect on LPS-induced release of IL1alpha (in words) (IL1alpha): significantly reduce; effect on LPS-induced release of TNFalpha (in words) (TNFalpha; HaCat + LPS): significantly reduce; TNF-ALPHA, normalized data 0-100% (TNFalpha; [5]): 18.45%; effect on LPS-induced release of IL8 (in words) (IL8; HaCat + LPS): significantly reduce; IL-8, normalized data 0-100% (IL8; [5]): 34.56% |
| C=C[C@@](C)(/C=C/c1ccc(O)cc1)CCC=C(C)C [Bakuchiol] |  | 6.25 (≈ 24.4 µM) | 6.25 (≈ 24.4 µM) |  |  | 100 (≈ 390 µM) | 100 (≈ 390 µM) |  |
| CCCCCCCCCCCC(=O)O [Lauric Acid, Lauric acid] |  | 500 (≈ 2500 µM) |  |  |  | 1000 (≈ 4990 µM) |  |  |

Continued, in another order:

| MIC [1] [µg/mL] | MIC [3] [µg/mL] | MIC [4] [µg/mL] | SMILES | MBC [1] [µg/mL] | antibacterial activity against P. acnes, as known (in words) [2] | MBC [3] [µg/mL] | MBC [4] [µg/mL] | other results |
| --- | --- | --- | --- | --- | --- | --- | --- | --- |
|  | 250 (≈ 1100 µM) | 1000 (≈ 4380 µM) | Oc1ccc(C=Cc2cc(O)cc(O)c2)cc1 [Resveratrol] |  |  | > 100000 | > 100000 |  |
| 480 |  |  | O=C(OOC(=O)c1ccccc1)c1ccccc1 [benzoyl peroxide] | 480 | strong antibacterial agent |  |  |  |
